Each compound was assayed against Dipeptidyl peptidase 4 (Homo sapiens, UniProt P27487) (assay: Inhibition of DPP4).
Dipeptidyl peptidase 4, sequence (P27487 whole entry): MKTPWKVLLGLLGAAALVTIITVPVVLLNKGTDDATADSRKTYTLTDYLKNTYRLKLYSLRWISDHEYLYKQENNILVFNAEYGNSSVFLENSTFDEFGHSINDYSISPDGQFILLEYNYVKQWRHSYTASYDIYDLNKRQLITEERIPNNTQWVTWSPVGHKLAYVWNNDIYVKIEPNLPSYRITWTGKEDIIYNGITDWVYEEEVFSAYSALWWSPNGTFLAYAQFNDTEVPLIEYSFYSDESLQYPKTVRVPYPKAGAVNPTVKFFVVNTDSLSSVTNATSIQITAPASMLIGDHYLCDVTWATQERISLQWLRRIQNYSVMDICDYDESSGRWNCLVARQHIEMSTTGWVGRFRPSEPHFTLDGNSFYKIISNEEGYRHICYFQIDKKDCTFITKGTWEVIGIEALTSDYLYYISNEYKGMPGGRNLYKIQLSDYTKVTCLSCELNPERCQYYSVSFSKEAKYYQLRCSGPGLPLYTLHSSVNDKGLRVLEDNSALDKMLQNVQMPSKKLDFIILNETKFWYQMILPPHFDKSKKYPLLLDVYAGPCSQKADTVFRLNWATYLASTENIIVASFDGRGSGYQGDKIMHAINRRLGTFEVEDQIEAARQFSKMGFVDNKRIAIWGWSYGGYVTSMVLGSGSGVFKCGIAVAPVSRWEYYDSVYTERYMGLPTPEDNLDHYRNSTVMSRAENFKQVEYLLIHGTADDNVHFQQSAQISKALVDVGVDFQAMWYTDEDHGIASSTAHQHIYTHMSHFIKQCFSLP

Row | Compound | IC50 [nM]
1 | C=COCC(=O)N1CCN(C(=O)C[C@H](N)Cc2ccccc2F)CC1 | 2210
2 | N[C@@H](CC(=O)N1CCn2cc(C(F)(F)F)nc2C1c1ccc(F)cc1)Cc1ccc(F)c(F)c1 (stereo partly specified) | 1400
3 | N[C@H](C(=O)N1CCC(F)(F)C1)[C@@H]1CCN(S(=O)(=O)c2ccc(OC(F)(F)F)cc2)C1 | 995
4 | COc1cc(CNC(=O)[C@@H]2CCCN2C(=O)C[C@H](N)Cc2ccccc2F)ccc1O | 864
5 | C=CCC(C(=O)N1CCn2c(nnc2C(F)(F)F)C1)[C@H](N)Cc1cc(F)c(F)cc1F (stereo partly specified) | 2000
6 | CC(C)[C@H](Oc1ccc(CNC(=O)[C@@H]2CCCN2C(=O)C[C@H](N)Cc2cc(F)c(F)c(F)c2F)cc1)C(=O)O | 8

Further lines, results first:

Row | IC50 [nM] | Compound
7 | 310 | O=C([C@@H]1Cc2ccc(-c3cccc(-c4nnn[nH]4)c3)cc2CN1)N1CC[C@H](F)C1
8 | 731 | N[C@@H](CC(=O)N1CCC[C@H]1C(=O)NCc1ccc(C(F)(F)F)cc1)Cc1ccccc1F
9 | 780 | CSc1cc(F)c(C[C@@H](N)CC(=O)N2CCn3c(nnc3C(F)(F)F)C2)cc1F
10 | 1320 | N[C@@H](CC(=O)N1CCn2nccc21)Cc1cc(F)ccc1F
11 | 1250 | N[C@@H](CC(=O)N1CCN(c2ccc(Cl)cc2)CC1)Cc1ccccc1F

Reference: ChEMBL document CHEMBL1144633, “Affinity-based ranking of ligands for DPP-4 from mixtures” (Bioorg Med Chem Lett, 2007)
